Read-outs that look alike come from different tables or passages of the source.
Assays:
healthy individuals [1] = details: in vivo
Description: (§1) All doses were administered 1 h before consumption of a standard American Heart Association Step 1 diet (≤30% of calories from fats) or a standard liquid meal on days 8 and 13 (BoostPlus®; Nestlé). […] Vital sign and 12-lead ECG measurements were collected at screening, at various times throughout the study, and at discharge. Multiple blood samples for pharmacokinetic analysis were collected on days 1–2 and 14–15.

[2] = healthy individuals, saxagliptin 5 mg, highest recommended therapeutic dose; cited from earlier work
healthy individuals [3] = details: in vivo, po
Description: (§2) Participants who were randomized to 75 or 100 mg received their second dose 30 min before consuming the high fat breakfast. Vital sign and 12-lead electrocardiogram (ECG) measurements were collected at screening, at various times throughout the study, and at discharge.

healthy individuals [4] = details: for concentration-dependent effect on QTcP: in vivo
Text: (§3) In a randomized, double-blind, 4-period, 4-treatment, cross-over tQTc study, healthy individuals were randomized to one of four treatment sequence groups. […] Serial blood samples for pharmacokinetic analysis were collected on day 4 of each period.
To account for the high degree of correlation between heart rate and QT interval, various correction formulae, including Bazett’s formula (QTcB), Fridericia’s formula (QTcF), QT interval corrected for heart rate (QTc) based on linear population-based analysis (QTcP), and QT interval corrected for heart rate based on log-linear population-based analysis (QTcLogP) were applied to obtain a QT interval independent of heart rate.

Cardiac hNAV1.5 = Cardiac hNAV1.5 (Homo sapiens, UniProt Q14524); test: Radioligand binding, cardiovascular-related targets
rodents and non-rodents = details: in vivo, po
Muscarinic M2 = biological target: T1, Muscarinic M2 (Homo sapiens, UniProt P08172); test: Radioligand binding, cardiovascular-related targets
T1 sequence (P08172 1-466): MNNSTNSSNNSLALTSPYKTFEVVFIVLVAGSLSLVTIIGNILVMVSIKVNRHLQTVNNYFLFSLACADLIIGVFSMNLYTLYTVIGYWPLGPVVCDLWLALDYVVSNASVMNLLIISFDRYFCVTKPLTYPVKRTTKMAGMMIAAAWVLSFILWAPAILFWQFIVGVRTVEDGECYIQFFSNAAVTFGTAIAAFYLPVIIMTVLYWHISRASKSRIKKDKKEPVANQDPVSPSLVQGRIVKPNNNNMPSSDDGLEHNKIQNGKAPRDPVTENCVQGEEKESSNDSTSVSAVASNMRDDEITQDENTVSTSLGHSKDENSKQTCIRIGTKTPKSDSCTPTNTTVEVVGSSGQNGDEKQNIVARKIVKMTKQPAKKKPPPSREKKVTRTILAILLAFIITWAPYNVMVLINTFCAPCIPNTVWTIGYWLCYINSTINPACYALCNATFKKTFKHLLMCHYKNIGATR

dog = details: in vivo, iv, 5.9 mg/kg
rat = details: in vivo, iv, 5.9 mg/kg
Adrenergic α1β = biological target: T2, Adrenergic α1β (Homo sapiens, UniProt P35368); test: Radioligand binding, cardiovascular-related targets
T2 sequence (P35368 1-520): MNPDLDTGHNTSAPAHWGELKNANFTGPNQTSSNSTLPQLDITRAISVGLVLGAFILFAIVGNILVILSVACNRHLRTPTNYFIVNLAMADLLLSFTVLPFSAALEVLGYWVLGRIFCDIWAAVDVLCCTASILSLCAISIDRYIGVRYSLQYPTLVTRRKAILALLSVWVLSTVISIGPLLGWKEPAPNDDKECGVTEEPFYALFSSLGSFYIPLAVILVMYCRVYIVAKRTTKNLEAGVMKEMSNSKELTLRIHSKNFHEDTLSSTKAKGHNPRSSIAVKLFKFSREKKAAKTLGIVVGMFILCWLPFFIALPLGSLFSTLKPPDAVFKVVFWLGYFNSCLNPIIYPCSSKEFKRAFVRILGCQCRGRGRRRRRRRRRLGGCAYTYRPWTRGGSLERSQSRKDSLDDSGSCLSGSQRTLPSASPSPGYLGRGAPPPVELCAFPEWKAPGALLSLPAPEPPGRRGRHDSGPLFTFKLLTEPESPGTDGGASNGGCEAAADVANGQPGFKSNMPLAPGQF

GABA-A α1B2γ2 = GABA-A α1B2γ2 (Homo sapiens, UniProt P14867+P18507+P47870); test: as above
L type Ca^2+ = test: as above; details: antagonism of radioligand binding; read-out: IC50 or EC50
ACE = test: as above
[5] = biological target: PDE (phosphodiesterase-3); test: as above; details: antagonism of radioligand binding; read-out: IC50 or EC50
dogs = details: dog, in vivo
[6] = system: healthy participants and patients with T2D; details: human, in vivo
Description: as §2, §1, §3
In a randomized, placebo-controlled, sequential MAD study, 40 patients with T2D were randomized to receive 2.5, 5, 15, 30, or 50 mg/day or matching placebo for 14 days. All doses were administered after consumption of a standard breakfast. […] Vital sign measurements and 12-lead ECG measurements were collected at screening, at various times throughout the study, and at discharge. Serial blood samples for pharmacokinetic analysis were collected on days 1, 7, and 14.

monkeys = details: monkey, in vivo
[7] = system: receptors, ion channels, and enzymes; test: Radioligand binding panel, all targets assessed; details: 10 μM
rabbit Purkinje fibers = details: mean (SEM)

Sequence of ACE (P22303 32-614, species assumed): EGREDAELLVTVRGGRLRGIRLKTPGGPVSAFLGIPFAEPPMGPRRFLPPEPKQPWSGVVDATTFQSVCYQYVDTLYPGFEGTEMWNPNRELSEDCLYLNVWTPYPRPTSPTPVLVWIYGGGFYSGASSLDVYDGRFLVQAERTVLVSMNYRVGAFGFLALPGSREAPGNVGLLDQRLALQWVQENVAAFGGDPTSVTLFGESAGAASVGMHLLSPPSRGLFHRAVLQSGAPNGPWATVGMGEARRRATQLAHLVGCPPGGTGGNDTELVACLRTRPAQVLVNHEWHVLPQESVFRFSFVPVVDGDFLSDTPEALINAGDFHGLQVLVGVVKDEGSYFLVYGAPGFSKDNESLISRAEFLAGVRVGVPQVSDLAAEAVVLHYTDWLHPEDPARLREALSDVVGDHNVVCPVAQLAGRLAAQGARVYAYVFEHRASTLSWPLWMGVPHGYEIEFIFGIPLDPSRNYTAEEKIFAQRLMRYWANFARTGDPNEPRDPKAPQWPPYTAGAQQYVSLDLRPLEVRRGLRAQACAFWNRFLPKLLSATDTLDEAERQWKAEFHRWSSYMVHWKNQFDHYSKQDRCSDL
Sequence of GABA-A α1B2γ2 (P14867 28-456): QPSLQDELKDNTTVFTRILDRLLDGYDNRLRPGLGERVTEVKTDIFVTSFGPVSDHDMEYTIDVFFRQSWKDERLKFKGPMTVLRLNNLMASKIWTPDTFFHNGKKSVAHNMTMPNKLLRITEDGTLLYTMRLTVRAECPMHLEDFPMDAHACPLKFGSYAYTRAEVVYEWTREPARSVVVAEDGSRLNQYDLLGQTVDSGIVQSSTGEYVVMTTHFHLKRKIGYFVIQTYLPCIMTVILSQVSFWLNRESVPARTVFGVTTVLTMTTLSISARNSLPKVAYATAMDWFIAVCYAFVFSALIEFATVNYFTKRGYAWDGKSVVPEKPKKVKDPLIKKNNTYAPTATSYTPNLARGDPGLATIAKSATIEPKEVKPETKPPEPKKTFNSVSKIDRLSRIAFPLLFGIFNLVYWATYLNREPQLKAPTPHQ
Sequence of GABA-A α1B2γ2 (P47870 25-512 limits assumed): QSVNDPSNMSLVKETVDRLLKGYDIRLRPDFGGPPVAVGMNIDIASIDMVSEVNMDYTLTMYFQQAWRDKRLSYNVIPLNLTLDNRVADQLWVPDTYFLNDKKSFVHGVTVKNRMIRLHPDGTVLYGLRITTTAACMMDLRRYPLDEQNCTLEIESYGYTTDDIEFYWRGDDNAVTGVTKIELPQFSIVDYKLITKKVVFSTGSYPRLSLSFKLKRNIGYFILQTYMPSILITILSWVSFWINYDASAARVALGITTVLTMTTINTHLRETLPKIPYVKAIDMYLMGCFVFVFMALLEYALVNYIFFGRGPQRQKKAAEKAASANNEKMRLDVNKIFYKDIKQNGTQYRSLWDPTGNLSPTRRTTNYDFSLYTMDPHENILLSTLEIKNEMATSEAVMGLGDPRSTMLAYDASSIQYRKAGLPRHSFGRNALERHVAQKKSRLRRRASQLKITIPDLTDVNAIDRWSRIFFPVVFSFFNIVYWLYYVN
Sequence of GABA-A α1B2γ2 (P18507 40-475): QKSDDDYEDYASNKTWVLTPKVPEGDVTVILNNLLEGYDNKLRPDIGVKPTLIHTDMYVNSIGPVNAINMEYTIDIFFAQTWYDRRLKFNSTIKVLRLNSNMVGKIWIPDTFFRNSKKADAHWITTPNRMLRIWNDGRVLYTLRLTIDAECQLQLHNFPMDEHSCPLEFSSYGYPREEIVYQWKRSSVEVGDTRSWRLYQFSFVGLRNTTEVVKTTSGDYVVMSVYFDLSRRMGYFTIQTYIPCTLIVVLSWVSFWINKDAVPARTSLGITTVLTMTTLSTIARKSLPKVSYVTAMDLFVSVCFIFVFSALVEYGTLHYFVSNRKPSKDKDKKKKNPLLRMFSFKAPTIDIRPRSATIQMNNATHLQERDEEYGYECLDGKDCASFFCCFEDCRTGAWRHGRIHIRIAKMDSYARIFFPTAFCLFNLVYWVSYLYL
Sequence of Cardiac hNAV1.5 (Q14524 whole entry): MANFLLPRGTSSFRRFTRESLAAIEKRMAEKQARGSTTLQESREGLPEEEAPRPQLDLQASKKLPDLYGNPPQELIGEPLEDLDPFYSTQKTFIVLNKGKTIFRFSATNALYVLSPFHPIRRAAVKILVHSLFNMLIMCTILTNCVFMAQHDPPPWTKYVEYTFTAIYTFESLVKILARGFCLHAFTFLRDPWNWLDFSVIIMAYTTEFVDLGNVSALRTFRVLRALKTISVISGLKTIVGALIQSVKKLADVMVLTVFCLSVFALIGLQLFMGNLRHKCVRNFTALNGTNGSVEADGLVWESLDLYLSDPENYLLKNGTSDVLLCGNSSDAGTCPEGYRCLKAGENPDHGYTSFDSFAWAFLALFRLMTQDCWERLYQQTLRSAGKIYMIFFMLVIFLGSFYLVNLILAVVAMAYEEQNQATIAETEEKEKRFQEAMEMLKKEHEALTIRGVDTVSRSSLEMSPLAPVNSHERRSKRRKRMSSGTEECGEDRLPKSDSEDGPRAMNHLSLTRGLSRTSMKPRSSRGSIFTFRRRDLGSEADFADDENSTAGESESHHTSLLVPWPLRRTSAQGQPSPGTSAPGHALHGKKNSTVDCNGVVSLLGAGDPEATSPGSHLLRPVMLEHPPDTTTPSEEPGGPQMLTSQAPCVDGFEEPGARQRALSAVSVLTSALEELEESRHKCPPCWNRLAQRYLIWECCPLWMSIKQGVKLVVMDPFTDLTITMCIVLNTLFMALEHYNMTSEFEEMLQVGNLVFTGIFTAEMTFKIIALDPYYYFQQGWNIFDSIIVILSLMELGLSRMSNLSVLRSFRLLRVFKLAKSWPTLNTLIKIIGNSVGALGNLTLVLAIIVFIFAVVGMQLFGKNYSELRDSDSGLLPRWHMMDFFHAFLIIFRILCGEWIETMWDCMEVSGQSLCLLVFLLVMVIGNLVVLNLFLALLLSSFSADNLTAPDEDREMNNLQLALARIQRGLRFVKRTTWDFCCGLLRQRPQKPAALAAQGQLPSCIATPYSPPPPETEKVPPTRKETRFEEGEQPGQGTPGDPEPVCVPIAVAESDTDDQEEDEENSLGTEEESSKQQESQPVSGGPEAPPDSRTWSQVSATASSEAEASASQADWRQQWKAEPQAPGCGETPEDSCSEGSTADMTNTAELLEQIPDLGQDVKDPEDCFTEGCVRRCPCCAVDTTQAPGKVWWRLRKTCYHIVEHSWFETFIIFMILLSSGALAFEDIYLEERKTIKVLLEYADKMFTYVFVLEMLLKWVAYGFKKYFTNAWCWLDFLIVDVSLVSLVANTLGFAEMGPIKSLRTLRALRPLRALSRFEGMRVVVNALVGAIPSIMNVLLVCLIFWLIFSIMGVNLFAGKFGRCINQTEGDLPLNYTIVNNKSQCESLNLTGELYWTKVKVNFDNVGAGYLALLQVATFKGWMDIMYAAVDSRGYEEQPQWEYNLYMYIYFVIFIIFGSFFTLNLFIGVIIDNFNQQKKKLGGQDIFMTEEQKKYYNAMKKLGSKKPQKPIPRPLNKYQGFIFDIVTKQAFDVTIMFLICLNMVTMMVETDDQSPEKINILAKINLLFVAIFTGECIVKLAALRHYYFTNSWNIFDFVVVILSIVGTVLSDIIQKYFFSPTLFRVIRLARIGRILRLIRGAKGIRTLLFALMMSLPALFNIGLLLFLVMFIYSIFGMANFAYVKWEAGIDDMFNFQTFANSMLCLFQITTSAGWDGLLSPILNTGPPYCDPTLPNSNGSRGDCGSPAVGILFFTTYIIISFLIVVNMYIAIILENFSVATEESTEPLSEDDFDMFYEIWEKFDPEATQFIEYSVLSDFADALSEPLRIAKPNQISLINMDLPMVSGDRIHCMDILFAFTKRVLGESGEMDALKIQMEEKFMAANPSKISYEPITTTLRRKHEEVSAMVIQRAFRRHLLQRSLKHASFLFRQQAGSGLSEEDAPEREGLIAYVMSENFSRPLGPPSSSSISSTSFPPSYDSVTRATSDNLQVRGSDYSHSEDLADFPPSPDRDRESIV

In the case of 5-hydroxy saxagliptin, the pharmacokinetics versus dose (healthy individuals [1]) is listed as “appeared linear with respect to dose”, the maximum plasma concentration [2] is listed as 0.047 µg/mL and the “dose excreted (renal excretion)” value (healthy individuals [3]) is listed as ~40%. The “mean renal clearance versus mean GFR” value (healthy individuals [3]) was “did not exceed mean GFR”, the “plasma exposures versus dose” value (healthy individuals [3]) was “generally increased proportionally with dose” and the “concentration-dependent effect on QTcP” value (healthy individuals [4]) was “no concentration-dependent effect”.
For `COc1c(N2C[C@@H]3CCCN[C@@H]3C2)c(F)cc2c(=O)c(C(=O)O)cn(C3CC3)c12` [moxifloxacin], the “maximum placebo-adjusted, time-matched change from baseline in QTcP” value (healthy individuals [4]; 400 mg, 4 h after dosing) was 12.52 ms, the “one-sided lower 95% confidence bound of QTcP change at time of maximum effect” value (healthy individuals [4]; 400 mg, 4 h after dosing) was 7.83 ms and the “individuals with QTcP change from baseline >30 ms” value (healthy individuals [4]; after treatment with placebo and moxifloxacin) was 1.
For `N#C[C@@H]1C[C@@H]2C[C@@H]2N1C(=O)[C@@H](N)C12CC3CC(CC(O)(C3)C1)C2` [saxagliptin], the IC50 (Cardiac hNAV1.5) was > 30 µM, the “multiples of human exposures based on AUC” value (rodents and non-rodents) was “up to 2200 times” and the IC50 (Muscarinic M2) was > 30 µM. The adverse effects (dog) was “no adverse effects”, the adverse effects (rat) was “no adverse effects” and the IC50 (Adrenergic α1β) was > 30 µM. For the same molecule, the IC50 (GABA-A α1B2γ2) was > 30 µM, the IC50 (L type Ca^2+) was > 25 µM and the IC50 (ACE) was > 60 µM. The IC50 [5] was > 30 µM, the heart weight (dogs) was “No increase” and the “Cmax exposure multiple of the 5 mg clinical dose” value (dogs; po) was ≤ 750 times. The “effect on vital sign measurements” value [6] was “no effect”, the “marked abnormalities in AST” value [6] was “No marked abnormalities” and the “Cmax exposure multiple of Cmax at the 5 mg oral human dose” value (monkeys; 3.4 mg/kg) was 280 times. For the same molecule, the adverse effects (monkeys; iv, 0.225 mg/kg) was “No adverse effects”, the “decreased blood pressure (reductions)” value (monkeys; iv, 3.4 mg/kg) was < 40 mmHg and the “inhibition on any targets assessed” value [7] was < 25%. The APD50 (rabbit Purkinje fibers; 3 μM) was 149 (24) ms, the “APD50 % Change” value (rabbit Purkinje fibers; 3 μM) was 0 (0) % and the APD90 (rabbit Purkinje fibers; 3 μM) was 235 (11) ms. The “APD90 % Change” value (rabbit Purkinje fibers; 3 μM) was 2 (1) %, the “Maximum upstroke velocity (Vmax)” value (rabbit Purkinje fibers; 3 μM) was 446 (15) v/s and the “Maximum upstroke velocity (Vmax) % Change” value (rabbit Purkinje fibers; 3 μM) was −5 (3) %. For the same molecule, the Overshoot (rabbit Purkinje fibers; 3 μM) was 29 (4) mV, the “Overshoot % Change” value (rabbit Purkinje fibers; 3 μM) was −7 (12) % and the “Resting Membrane Potential” value (rabbit Purkinje fibers; 3 μM) was −84 (1) mV. For the same molecule, the “Resting Membrane Potential % Change” value (rabbit Purkinje fibers; 3 μM) was 0 (1) %, the APD50 (rabbit Purkinje fibers; 10 μM) was 153 (26) ms and the “APD50 % Change” value (rabbit Purkinje fibers; 10 μM) was 2 (1) %. For the same molecule, the APD90 (rabbit Purkinje fibers; 10 μM) was 237 (14) ms, the “APD90 % Change” value (rabbit Purkinje fibers; 10 μM) was 2 (1) % and the “Maximum upstroke velocity (Vmax)” value (rabbit Purkinje fibers; 10 μM) was 462 (21) v/s. For the same molecule, the “Maximum upstroke velocity (Vmax) % Change” value (rabbit Purkinje fibers; 10 μM) was −2 (3) %, the Overshoot (rabbit Purkinje fibers; 10 μM) was 32 (4) mV and the “Overshoot % Change” value (rabbit Purkinje fibers; 10 μM) was 1 (11) %. The “Resting Membrane Potential” value (rabbit Purkinje fibers; 10 μM) was −86 (1) mV, the “Resting Membrane Potential % Change” value (rabbit Purkinje fibers; 10 μM) was 2 (2) % and the APD50 (rabbit Purkinje fibers; 30 μM) was 152 (21) ms. For the same molecule, the “APD50 % Change” value (rabbit Purkinje fibers; 30 μM) was 3 (4) %, the APD90 (rabbit Purkinje fibers; 30 μM) was 239 (11) ms and the “APD90 % Change” value (rabbit Purkinje fibers; 30 μM) was 3 (2) %. The “Maximum upstroke velocity (Vmax)” value (rabbit Purkinje fibers; 30 μM) was 437 (13) v/s, the “Maximum upstroke velocity (Vmax) % Change” value (rabbit Purkinje fibers; 30 μM) was −7 (5) % and the Overshoot (rabbit Purkinje fibers; 30 μM) was 29 (5) mV. The “Overshoot % Change” value (rabbit Purkinje fibers; 30 μM) was −7 (14) %, the “Resting Membrane Potential” value (rabbit Purkinje fibers; 30 μM) was −85 (2) mV and the “Resting Membrane Potential % Change” value (rabbit Purkinje fibers; 30 μM) was 1 (3) %. For the same molecule, the “dose excreted (renal excretion)” value (healthy individuals [3]; human) was “approximately 20%”, the “mean renal clearance versus mean GFR” value (healthy individuals [3]) was “exceeded mean GFR” and the “plasma exposures versus dose” value (healthy individuals [3]) was “generally increased proportionally with dose”. The “concentration-dependent effect on QTcP” value (healthy individuals [4]) was “no concentration-dependent effect”.

— publication PMC5598064 (Cardiovascular Diabetology, 2017)
